From patent publication US20220177476A1, “Crystal Forms of (S)-4-(8-amino-3-(1-(but-2-ynoyl)-pyrrolidin-2-yl)imidazo[1,5-a]pyrazin-1-yl)-n-(pyridin-2-yl)benzamide” (Acerta Pharma B.V., priority 2015, published 2022)
Like-named read-outs stand apart in the source and are kept apart here.

Experiments:
Assay type in all cases: physicochemical
[1] = Aqueous solubility of salts after three hours equilibration without pH adjustment; settings: thermodynamic from solid, water
Experimental: Characterization of fumarate salt, maleate salt, phosphate salt and L-tartrate salt was conducted using ^1H NMR spectroscopy, TG-FTIR, DSC, dynamic vapor sorption, optical microscopy, high-performance liquid chromatography (HPLC) purity, laser diffraction, approximate bulk and tapped density, and aqueous solubility analytical techniques.

[2] = Aqueous solubility of Formula (1) free base as a function of pH
Excerpt: The aqueous solubility of Formula (1) free base was examined as a function of pH.

[3] = pKa by ultraviolet (UV) spectrometric titration; settings: for pKa: aqueous solution
Experimental: The pKa values for Formula (1) free base were determined and used to create the speciation plot shown in FIG. 47 to illustrate the species present as the Formula (1) passes through the gastrointestinal tract. The sample pKa values were determined using an ultraviolet (UV) spectrometric technique. The sample was initially titrated in a fast-UV triple titration between pH 2-12 at concentrations of 31-19 μM, under aqueous conditions. Three pKa values, with average values of ˜3.6, ˜5.8 and ˜12.0, were determined. The sample was subsequently titrated in six titrations, under aqueous conditions over a total range of pH 1.5-12.5 at concentrations of 30-18 μM.

[4] = logP by potentiometric (pH-metric) technique, octanol/water; settings: 25° C., 0.15 M KCl
Experimental: The logP of Formula (1) free base was determined using the potentiometric (pH-metric) technique. The sample was titrated in various ratios of octanol/water from pH 1.9-12.1 at concentrations of 1.1-0.5 mM at 25° C. in an ionic environment of 0.15 M KCl. The potentiometric data collected were used to calculate the logP of the neutral (2.03±0.01) and the cationic (−0.31±0.06) species.

[5] = Water content by Karl Fischer titration
[6] = six titrations, pH 1.5-12.5, 30-18 μM, aqueous

With `CC#CC(=O)N1CCC[C@H]1c1nc(-c2ccc(C(=O)Nc3ccccn3)cc2)c2c(N)nccn12` [Formula (1), (S)-4-(8-amino-3-(1-(but-2-ynoyl)pyrrolidin-2-yl)imidazo[1,5-α]pyrazin-1-yl)-N-(pyridin-2-yl)benzamide] as the molecule, how does the solubility at 3 h [1] read?
Its solubility at 3 h is under 1000 µg/mL.

And the solubility ([2]; aqueous HCl solution, pH 1, simulated gastric fluid, thermodynamic from solid, HCl solution having a pH of about 1, read-out: solubility in HCl solution)?
Its solubility is at least 150000 µg/mL.

And the solubility ([2]; aqueous buffer solution, pH 5, aqueous buffer, thermodynamic from solid, effective pH at the end of the test 5.0, read-out: Solubility)?
Its solubility is 690 µg/mL.

What about the solubility ([2]; aqueous buffer solution, pH 7.3, aqueous buffer, thermodynamic from solid, effective pH at the end of the test 7.3, read-out: Solubility) of the same molecule?
Its solubility is 49 µg/mL.

And the solubility ([2]; aqueous buffer solution, pH 8.9, aqueous buffer, thermodynamic from solid, effective pH at the end of the test 8.9, read-out: Solubility)?
The solubility was 51 µg/mL.

What about the solubility ([2]; aqueous buffer solutions, aqueous buffer, thermodynamic from solid, pH 6.7 and greater, read-out: aqueous solubility, constant level) of the same molecule?
Its solubility is about 50 µg/mL.

And the “solubility” value ([2]; effective pH at the end of the test 6.7)?
Its value is 56 µg/mL.

And the “aqueous solubility, constant level” value ([2]; pH 6.7 and greater)?
The value was “about 50 μg/mL”.

What about the pKa ([3]; free base, Table 9, read-out: pKa) of the same molecule?
The pKa was about 5.7.

And the pKa ([3]; pH 1.5, six titrations, pH 1.5-12.5, 30-18 μM, aqueous, read-out: pKa, average value (third))?
Its pKa is 12.12 ± 0.03.

And the pKa ([3]; pH 2, fast-UV triple titration, pH 2-12, 31-19 μM, aqueous, read-out: pKa, average value (first))?
Its pKa is about 3.6.

What about the pKa ([3]; pH 2, fast-UV triple titration, pH 2-12, 31-19 μM, aqueous, read-out: pKa, average value (second)) of the same molecule?
Its pKa is about 5.8.

What about the pKa ([3]; pH 2, fast-UV triple titration, pH 2-12, 31-19 μM, aqueous, read-out: pKa, average value (third)) of the same molecule?
Its pKa is about 12.

What about the “pKa, average value (first)” value [3, 6] of the same molecule?
The value was 3.54±0.01.

What about the “pKa, average value (second)” value [3, 6] of the same molecule?
The value was 5.77±0.01.

What about the “logP of the neutral species” value [4] of the same molecule?
Its value is 2.03±0.01.

And the logP ([4]; read-out: logP of the cationic species)?
The logP was -0.31 ± 0.06.

With `CC#CC(=O)N1CCC[C@H]1c1nc(-c2ccc(C(=O)Nc3ccccn3)cc2)c2c(N)nccn12.O=S(=O)(O)O` [sulfate salt, (S)-4-(8-amino-3-(1-(but-2-ynoyl)pyrrolidin-2-yl)imidazo[1,5-α]pyrazin-1-yl)-N-(pyridin-2-yl)benzamide sulfate] as the molecule, how does the “water content (% found, experimental)” value [5] read?
Its value is 10.6%.
